Measured values: patent US20250368624A1, “M24B AMINOPEPTIDASE INHIBITORS FOR CARD8 INFLAMMASOME ACTIVATION” (Memorial Sloan-Kettering Cancer Center, priority 2022, published 2025)

Columns and labels:
[1] = molecular target: recombinant human PEPD (Homo sapiens (Human), UniProt P12955); test: PEPD substrate assay (Ala-Pro cleavage, L-alanine assay kit); format: biochemical; conditions: 50 nM recombinant human PEPD, Ala-Pro 40 μM, 25° C.
Procedure: Protein purification. Human prolidase (PEPD) was generated and purified. XPNPEP1 in pET15-b containing a 6× His tag was expressed in E. coli Rosetta DE3 cells.
Substrate assays. For the PEPD assay, a solution of substrate (Ala-Pro) was prepared in DMSO. 24 μL of 50 nM recombinant human PEPD were added to a 384-well, black, clear-bottom plate (Corning) with 1 μL dipeptide Ala-Pro (final conc. 40 μM). […] For the AMC reporter assays, experiments were performed with cell lysates. 5 μL solution of substrate (2.5 mM Ala-AMC) was added the mixture of 10 μL HEK293T cell lysates (2.5 mg/ml) and 10 μL of indicated compounds in a 384-well, black, clear-bottom plate (Corning) to initiate the reaction. Substrate cleavage was measured as increasing fluorescence signal (Ex/Em: 380/460 nm) recorded at 25° C. for 20 mins. […] H-Lys(abz)-Pro-Pro-pNA substrate was added to a final concentration of 100 μM, and fluorescence was monitored (Ex/Em: 320/410) for 60 mins.

[2] = molecular target: XPNPEP1 (Homo sapiens (Human), UniProt Q9NQW7); test: XPNPEP1 substrate assay (H-Lys(abz)-Pro-Pro-pNA); format: biochemical; conditions: XPNPEP1 3.5 nM, substrate 100 μM, 60 mins
Chain of XPNPEP1 (Q9NQW7 whole entry): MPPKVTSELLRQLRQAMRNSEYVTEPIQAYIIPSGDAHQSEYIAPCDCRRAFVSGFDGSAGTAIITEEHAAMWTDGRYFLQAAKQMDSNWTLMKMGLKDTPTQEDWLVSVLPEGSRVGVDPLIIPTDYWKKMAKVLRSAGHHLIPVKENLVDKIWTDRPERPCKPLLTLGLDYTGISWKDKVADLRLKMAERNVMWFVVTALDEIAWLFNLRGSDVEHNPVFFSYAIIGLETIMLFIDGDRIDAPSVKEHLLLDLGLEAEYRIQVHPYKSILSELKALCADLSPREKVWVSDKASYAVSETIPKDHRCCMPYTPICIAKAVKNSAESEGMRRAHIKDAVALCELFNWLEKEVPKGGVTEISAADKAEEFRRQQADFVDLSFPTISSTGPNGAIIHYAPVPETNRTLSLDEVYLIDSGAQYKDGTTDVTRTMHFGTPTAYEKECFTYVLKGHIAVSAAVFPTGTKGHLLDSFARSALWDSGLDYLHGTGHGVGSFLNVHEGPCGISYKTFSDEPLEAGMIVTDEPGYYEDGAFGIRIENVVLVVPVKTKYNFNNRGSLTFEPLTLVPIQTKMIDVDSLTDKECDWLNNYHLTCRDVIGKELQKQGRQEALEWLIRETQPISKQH
Procedure: Protein purification. Human prolidase (PEPD) was generated and purified. XPNPEP1 in pET15-b containing a 6× His tag was expressed in E. coli Rosetta DE3 cells. Cells were induced with IPTG for 16 h at 37° C., pelleted and lysed in buffer A (20 mM Tris-HCl (pH 7.9), 500 mM NaCl, and 10% (v/v) glycerol) by sonication. Affinity purification chromatography was performed using TALON resin and according to previously published protocols (Li et al., 2008).
Substrate assays. For the PEPD assay, a solution of substrate (Ala-Pro) was prepared in DMSO. 24 μL of 50 nM recombinant human PEPD were added to a 384-well, black, clear-bottom plate (Corning) with 1 μL dipeptide Ala-Pro (final conc. 40 μM). Alanine liberated was measured as increasing fluorescence signal (Resorufin, Ex/Em: 535/587 nm) recorded at 25° C. using an L-alanine assay kit (Abcam, ab83394) at 25° C. according to manufacturer's instructions. For the AMC reporter assays, experiments were performed with cell lysates. 5 μL solution of substrate (2.5 mM Ala-AMC) was added the mixture of 10 μL HEK293T cell lysates (2.5 mg/ml) and 10 μL of indicated compounds in a 384-well, black, clear-bottom plate (Corning) to initiate the reaction. Substrate cleavage was measured as increasing fluorescence signal (Ex/Em: 380/460 nm) recorded at 25° C. for 20 mins. For XPNPEP1 enzymes (XPNPEP1 3.5 nM) were plated on a black 384-well clear bottom plate and treated with the indicated doses of compounds. H-Lys(abz)-Pro-Pro-pNA substrate was added to a final concentration of 100 μM, and fluorescence was monitored (Ex/Em: 320/410) for 60 mins.

[3] = tested on: MV4;11 WT cells; test: CellTiter-Glo cell viability, WT MV4;11 cells; format: cell-based
Procedure: CellTiter-Glo cell viability and CytoTox-Fluor cell death assays. Cells were plated (2,000 cells per well) in white, 384-well clear-bottom plates (Corning) using an EL406 Microplate Washer/Dispenser (BioTek) in 25 μL final volume of medium. To the cell plates were added compounds at different concentrations using a pintool (CyBio) and the plates were allowed to incubate in the incubator. After incubation for indicated times, CytoTox-Fluor reagent (Promega, G9262) was added according to the manufacturer's protocol. The assay plates were then incubated for another 30 min before fluorescence was recorded using a Cytation 5 Cell Imaging Multi-Mode Reader (BioTek). Next, CellTiter-Glo reagent (Promega, G7573) was subsequently added to the assay plates following the manufacturer's protocol. Assay plates were shaken on an orbital shaker for 2 min and incubated at 25° C. for 10 min. Luminescence was then read using a Cytation 5 Cell Imaging Multi-Mode Reader (BioTek).

Chain of recombinant human PEPD (P12955 whole entry): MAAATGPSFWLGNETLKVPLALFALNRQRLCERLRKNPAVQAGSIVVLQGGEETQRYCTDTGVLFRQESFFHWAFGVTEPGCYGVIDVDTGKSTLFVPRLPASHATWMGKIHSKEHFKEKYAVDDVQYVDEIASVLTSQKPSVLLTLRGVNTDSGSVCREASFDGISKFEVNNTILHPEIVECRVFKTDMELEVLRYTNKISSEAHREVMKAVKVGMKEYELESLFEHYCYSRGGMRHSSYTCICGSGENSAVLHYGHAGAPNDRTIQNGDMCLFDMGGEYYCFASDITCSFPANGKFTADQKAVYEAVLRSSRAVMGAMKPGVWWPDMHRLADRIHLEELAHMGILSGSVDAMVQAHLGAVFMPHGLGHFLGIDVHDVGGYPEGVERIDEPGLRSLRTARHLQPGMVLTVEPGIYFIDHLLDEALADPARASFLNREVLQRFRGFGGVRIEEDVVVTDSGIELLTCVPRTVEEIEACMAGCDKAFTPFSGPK

Compound	IC50 [1] [µM]	IC50 [2] [µM]	overall activity (PEPD/XPNPEP1 inhibition and cytotoxicity, Table 6 and FIG. 2), in words [3]
COC(=O)[C@@H]1C[C@H](F)CN1C(=O)[C@@H](O)[C@H](N)CC(C)C [CQ35, Methyl (2S,4S)-1-((2S,3R)-3-amino-2-hydroxy-5-methylhexanoyl)-4-fluoropyrrolidine-2-carboxylate]	0.84	74	
COC(=O)[C@@H]1CCCN1C(=O)[C@@H](O)[C@H](N)C(C)C [CQ59, Methyl ((2S,3R)-3-amino-2-hydroxy-4-methylpentanoyl)-L-prolinate]	1.8	190	
CCCC[C@@H](N)[C@H](O)C(=O)N1CCC[C@H]1C(=O)OC [CQ63]	0.53	92	
CC(C)C[C@@H](N)[C@H](O)C(=O)N1CCC[C@H]1C(N)=O [CQ49, (S)-1-((2S,3R)-3-amino-2-hydroxy-5-methylhexanoyl)pyrrolidine-2-carboxamide]	0.28	53	retained similar PEPD/XPNPEP1 inhibition and cytotoxicity as CQ31
CC(C)C[C@H](NC(=O)[C@@H]1CCCN1C(=O)[C@@H](O)[C@H](N)CC(C)C)C(=O)N(C)C [CQ109, (S)-1-((2S,3R)-3-amino-2-hydroxy-5-methylhexanoyl)-N—((S)-1-(dimethylamino)-4-methyl-1-oxopentan-2-yl)pyrrolidine-2-carboxamide]	4	11	
CONC(=O)[C@H](CC(C)C)NC(=O)[C@@H]1CCCN1C(=O)[C@@H](O)[C@H](N)CC(C)C [CQ111, (S)-1-((2S,3R)-3-amino-2-hydroxy-5-methylhexanoyl)-N—((S)-1-(methoxyamino)-4-methyl-1-oxopentan-2-yl)pyrrolidine-2-carboxamide]	14	84	
CC(C)C[C@@H](N)[C@H](O)C(=O)N1CCCC1 [CQ76, (2S,3R)-3-amino-2-hydroxy-5-methyl-1-(pyrrolidin-1-yl)hexan-1-one]	> 100	38	abrogated all activity
COC(=O)[C@@H]1CCCN1C(=O)[C@@H](O)[C@H](N)Cc1ccccc1 [CQ42, Methyl ((2S,3R)-3-amino-2-hydroxy-4-phenylbutanoyl)-L-prolinate]	7.6	241	
COC(=O)[C@@H]1CCCN1C(=O)[C@@H](O)[C@H](N)c1ccco1 [CQ68, Methyl ((2S,3S)-3-amino-3-(furan-2-yl)-2-hydroxypropanoyl)-L-prolinate]	1.7	69	
CC(C)C[C@H](NC(=O)[C@@H]1CCCN1C(=O)[C@@H](O)[C@H](N)CC(C)C)C(=O)NS(=O)(=O)N(C)C [CQ113, (S)-1-((2S,3R)-3-amino-2-hydroxy-5-methylhexanoyl)-N—((S)-1-((N,N-dimethylsulfamoyl)-amino)-4-methyl-1-oxopentan-2-yl)pyrrolidine-2-carboxamide]	0.56	2.9	
CC(C)C[C@H](NC(=O)[C@@H]1CCCN1C(=O)[C@@H](O)[C@H](N)CC(C)C)C(=O)N1CCC1 [CQ112, (S)-1-((2S,3R)-3-amino-2-hydroxy-5-methylhexanoyl)-N—((S)-1-(azetidin-1-yl)-4-methyl-1-oxopentan-2-yl)pyrrolidine-2-carboxamide]	66	95	
COC(=O)[C@@H]1CCCN1C(=O)[C@@H](O)[C@H](N)CCC(F)(F)F [CQ43, Methyl ((2S,3R)-3-amino-6,6,6-trifluoro-2-hydroxyhexanoyl)-L-prolinate]	1.3	115	
COC(=O)[C@@H]1CCCN1C(=O)[C@@H](O)[C@H](N)c1ccccc1 [CQ64, Methyl ((2S,3R)-3-amino-2-hydroxy-3-phenylpropanoyl)-L-prolinate]	2.8	203	
CC(C)C[C@H](NC(=O)[C@@H]1CCCN1C(=O)[C@@H](O)[C@H](N)CC(C)C)C(=O)NCCF [CQ114, (S)-1-((2S,3R)-3-amino-2-hydroxy-5-methylhexanoyl)-N—((S)-1-((2-fluoroethyl)amino)-4-methyl-1-oxopentan-2-yl)pyrrolidine-2-carboxamide]	0.72	7	
CC(C)C[C@H](NC(=O)[C@@H]1CCCN1C(=O)[C@@H](O)[C@H](N)CC(C)C)C(=O)NCCc1ccc2ccccc2c1 [CQ117, (S)-1-((2S,3R)-3-amino-2-hydroxy-5-methylhexanoyl)-N—((S)-4-methyl-1-((2-(naphthalen-2-yl)ethyl)amino)-1-oxopentan-2-yl)pyrrolidine-2-carboxamide]	7.6	2.2	
COC(=O)[C@@H]1C[C@H](C)CN1C(=O)[C@@H](O)[C@H](N)CC(C)C [CQ38, Methyl (2S,4S)-1-((2S,3R)-3-amino-2-hydroxy-5-methylhexanoyl)-4-methylpyrrolidine-2-carboxylate]	2.2	154	
COC(=O)[C@@H]1CCCN1C(=O)[C@@H](O)[C@H](N)c1cccs1 [CQ70, Methyl ((2S,3S)-3-amino-2-hydroxy-3-(thiophen-2-yl)propanoyl)-L-prolinate]	2	65	
CC(C)C[C@H](NC(=O)[C@@H]1CCCN1C(=O)[C@@H](O)[C@H](N)CC(C)C)C(=O)NCCc1ccc(-c2ccccc2)cc1 [CQ119, (S)—N—((S)-1-((2-([1,1′-biphenyl]-4-yl)ethyl)amino)-4-methyl-1-oxopentan-2-yl)-1-((2S,3R)-3-amino-2-hydroxy-5-methylhexanoyl)pyrrolidine-2-carboxamide]	14	1.7	
CC(C)C[C@H](NC(=O)[C@@H]1CCCN1C(=O)[C@@H](O)[C@H](N)CC(C)C)C(=O)NC(C)(C)C [CQ115, (S)-1-((2S,3R)-3-amino-2-hydroxy-5-methylhexanoyl)-N—((S)-1-(tert-butylamino)-4-methyl-1-oxopentan-2-yl)pyrrolidine-2-carboxamide]	3.7	14	
COC(=O)[C@@H]1CCCN1C(=O)[C@@H](O)[C@H](N)CC(C)(C)C [CQ45, Methyl ((2S,3R)-3-amino-2-hydroxy-5,5-dimethylhexanoyl)-L-prolinate]	1.5	57	
CC(C)CCNC(=O)[C@H](CC(C)C)NC(=O)[C@@H]1CCCN1C(=O)[C@@H](O)[C@H](N)CC(C)C [CQ110, (S)-1-((2S,3R)-3-amino-2-hydroxy-5-methylhexanoyl)-N—((S)-1-(isopentylamino)-4-methyl-1-oxopentan-2-yl)pyrrolidine-2-carboxamide]	1.5	14	
COC(=O)[C@@H]1CC2(CC2)CN1C(=O)[C@@H](O)[C@H](N)CC(C)C [CQ36, Methyl (S)-5-((2S,3R)-3-amino-2-hydroxy-5-methylhexanoyl)-5-azaspiro[2.4]heptane-6-carboxylate]	1	324	
COC(=O)[C@@H]1CCCN1C(=O)[C@@H](O)[C@H](N)c1ccc2ccoc2c1 [CQ69, Methyl ((2S,3R)-3-amino-3-(benzofuran-6-yl)-2-hydroxypropanoyl)-L-prolinate]	1.8	47	
CC(C)C[C@H](NC(=O)[C@@H]1CCCN1C(=O)[C@@H](O)[C@H](N)CC(C)C)C(N)=O [CQ96, (S)-1-((2S,3R)-3-amino-2-hydroxy-5-methylhexanoyl)-N—((S)-1-amino-4-methyl-1-oxopentan-2-yl)pyrrolidine-2-carboxamide]	7.5	10	
